Experimental data published in PubChem BioAssay AID330 (DTP/NCI, 2004).
Values joined by “and” are separate entries in the source; they are usually repeats but may differ in a detail not shown here. Equal values may be shown once. Inconclusive results and toxic doses are left out. How the source made its calls: active means survival T/C of 150% or more; inactive means T/C below 125% in these data.

Tested on: P388 leukemia ip, CD2F1 mice, survival T/C
Assay: NCI In Vivo Anticancer Drug Screen. Data for tumor model P388 Leukemia (intraperitoneal) in CD2F1 (CDF1) mice
Conditions: endpoint: median survival time, higher = longer survival
Method in brief: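 Mice carrying the transplanted tumor received test compound or vehicle. Survival was recorded in each group, and the value is the treated-group measurement divided by that of the vehicle-treated control group.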

[1] = dose: 50.0 mg/kg/injection, schedule: Q01DX009 (ip), vehicle: Klucel (hydroxypropylcellulose) (HPC)
[2] = dose: 100.0 mg/kg/injection, schedule: Q01DX009 (ip), vehicle: Klucel (hydroxypropylcellulose) (HPC)
[3] = dose: 200.0 mg/kg/injection, schedule: Q01DX009 (ip), vehicle: Klucel (hydroxypropylcellulose) (HPC)
[4] = dose: 60.0 mg/kg/injection, schedule: Q01DX005 (ip), vehicle: Klucel (hydroxypropylcellulose) (HPC)
[5] = dose: 120.0 mg/kg/injection, schedule: Q01DX005 (ip), vehicle: Klucel (hydroxypropylcellulose) (HPC)
[6] = dose: 50.0 mg/kg/injection, schedule: Q01DX009 (ip), vehicle: saline with Tween-80
[7] = dose: 100.0 mg/kg/injection, schedule: Q01DX009 (ip), vehicle: saline with Tween-80
[8] = dose: 200.0 mg/kg/injection, schedule: Q01DX009 (ip), vehicle: saline with Tween-80
[9] = dose: 100.0 mg/kg/injection, schedule: Q04DX003 (ip), vehicle: Klucel (hydroxypropylcellulose) (HPC)
[10] = dose: 200.0 mg/kg/injection, schedule: Q04DX003 (ip), vehicle: Klucel (hydroxypropylcellulose) (HPC)
[11] = dose: 400.0 mg/kg/injection, schedule: Q04DX003 (ip), vehicle: Klucel (hydroxypropylcellulose) (HPC)
[12] = dose: 100.0 mg/kg/injection, schedule: Q04DX003 (ip), vehicle: saline
[13] = dose: 200.0 mg/kg/injection, schedule: Q04DX003 (ip), vehicle: saline
[14] = dose: 12.5 mg/kg/injection, schedule: Q01DX009 (ip), vehicle: saline with Tween-80
[15] = dose: 25.0 mg/kg/injection, schedule: Q01DX009 (ip), vehicle: saline with Tween-80

Measured: T/C

O=C1c2cc(Cl)ccc2NC(O)c2cccn21 (stereo not drawn)
inactive: dose: 0.1 mg/kg/injection, schedule: Q01DX005 (ip), vehicle: water 93 % of control | dose: 0.2 mg/kg/injection, schedule: Q01DX005 (ip), vehicle: water 89 % of control | dose: 0.4 mg/kg/injection, schedule: Q01DX005 (ip), vehicle: water 90 % of control | dose: 0.8 mg/kg/injection, schedule: Q01DX005 (ip), vehicle: water 98 % of control | dose: 1.6 mg/kg/injection, schedule: Q01DX005 (ip), vehicle: water 98 % of control | dose: 5.0 mg/kg/injection, schedule: Q01DX005 (ip), vehicle: distilled water + Tween-80 95 % of control | dose: 10.0 mg/kg/injection, schedule: Q01DX005 (ip), vehicle: distilled water + Tween-80 101 % of control | dose: 20.0 mg/kg/injection, schedule: Q01DX005 (ip), vehicle: distilled water + Tween-80 95 % of control | dose: 40.0 mg/kg/injection, schedule: Q01DX005 (ip), vehicle: distilled water + Tween-80 92 % of control | dose: 80.0 mg/kg/injection, schedule: Q01DX005 (ip), vehicle: distilled water + Tween-80 93 % of control

CCOP(=S)(O/C(=C/Cl)c1cc(Cl)c(Cl)cc1Cl)c1ccccc1 (stereo not drawn)
inactive: [1] 92 % of control | [2] 95 % of control | [3] 96 % of control

COc1ccc2c(NCCCCCCCCNc3c4ccc(OC)cc4nc4cc([N+](=O)[O-])ccc34)c3ccc([N+](=O)[O-])cc3nc2c1
inactive: dose: 0.63 mg/kg/injection, schedule: Q01DX009 (ip), vehicle: other 88 % of control | dose: 1.25 mg/kg/injection, schedule: Q01DX009 (ip), vehicle: other 88 % of control | dose: 2.5 mg/kg/injection, schedule: Q01DX009 (ip), vehicle: other 119 % of control | dose: 5.0 mg/kg/injection, schedule: Q01DX009 (ip), vehicle: other 120 % of control | dose: 10.0 mg/kg/injection, schedule: Q01DX009 (ip), vehicle: other 121 % of control | dose: 20.0 mg/kg/injection, schedule: Q01DX009 (ip), vehicle: other 120 % of control

CN(C)c1ccc(/C=C/c2ccc3c(c2)OCO3)cc1
inactive: [1] 98 % of control | [2] 95 % of control | [3] 98 % of control

O=C1CSC(c2ccc(Cl)c([N+](=O)[O-])c2)N1c1nncs1 (stereo not drawn)
inactive: [4] 99 % of control | [5] 100 % of control | dose: 240.0 mg/kg/injection, schedule: Q01DX005 (ip), vehicle: Klucel (hydroxypropylcellulose) (HPC) 97 % of control

CCCCC(O)(CCCC)/C(C)=N/O
inactive: [6] 94 % of control | [7] 91 % of control | [8] 87 % of control

CCOP(=O)(O)OCC.[Sc]
inactive: dose: 100.0 mg/kg/injection, schedule: Q04DX002 (ip), vehicle: saline with Tween-80 93 % of control | dose: 200.0 mg/kg/injection, schedule: Q04DX002 (ip), vehicle: saline with Tween-80 101 % of control | dose: 400.0 mg/kg/injection, schedule: Q04DX002 (ip), vehicle: saline with Tween-80 104 % of control

CC(C)OCCCNCC(=O)Nc1ccc(S(=O)(=O)c2ccc(NC(=O)CNCCCOC(C)C)cc2)cc1
inactive: dose: 50.0 mg/kg/injection, schedule: Q01DX005 (ip), vehicle: Klucel (hydroxypropylcellulose) (HPC) 95 % of control | dose: 100.0 mg/kg/injection, schedule: Q01DX005 (ip), vehicle: Klucel (hydroxypropylcellulose) (HPC) 100 % of control | dose: 200.0 mg/kg/injection, schedule: Q01DX005 (ip), vehicle: Klucel (hydroxypropylcellulose) (HPC) 100 % of control

Clc1ccc(CN2Cc3ccc4cccnc4c3OC2c2ccncc2)cc1Cl (stereo not drawn)
inactive: [9] 100 % of control | [10] 96 % of control | [11] 103 % of control

CN(C)CCSSCCN(C)C.[Cl][Zn][Cl]
inactive: dose: 6.25 mg/kg/injection, schedule: Q01DX005 (ip), vehicle: Klucel (hydroxypropylcellulose) (HPC) 102 % of control | dose: 12.5 mg/kg/injection, schedule: Q01DX005 (ip), vehicle: Klucel (hydroxypropylcellulose) (HPC) 95 % of control | dose: 25.0 mg/kg/injection, schedule: Q01DX005 (ip), vehicle: Klucel (hydroxypropylcellulose) (HPC) 97 % of control

CC1(C)NC(=O)N(Br)C1=O
inactive: [6] 104 % of control | [7] 100 % of control | [8] 104 % of control

C=C(Br)C(=O)N1CCCC1C(=O)NC (stereo not drawn)
inactive: dose: 25.0 mg/kg/injection, schedule: Q01DX009 (ip), vehicle: saline 110 % of control | dose: 50.0 mg/kg/injection, schedule: Q01DX009 (ip), vehicle: saline 91 % of control | dose: 100.0 mg/kg/injection, schedule: Q01DX009 (ip), vehicle: saline 98 % of control

CCN(CCC#N)C(=O)c1cccc([N+](=O)[O-])c1
inactive: [4] 102 % of control | [5] 94 % of control

CC(C(N)C(=O)NC(C(=O)O)C1OC(n2ccc(=O)[nH]c2=O)C(O)C1O)C(O)c1ccc(O)cn1 (stereo not drawn)
inactive: dose: 25.0 mg/kg/injection, schedule: Q01DX005 (ip), vehicle: saline 100 % of control | dose: 50.0 mg/kg/injection, schedule: Q01DX005 (ip), vehicle: saline 103 % of control | dose: 100.0 mg/kg/injection, schedule: Q01DX005 (ip), vehicle: saline 100 % of control

CN(C)[C@@H]1C(=O)C(C(N)=O)=C(O)[C@@]2(O)C(=O)C3=C(O)c4c(O)ccc(Cl)c4[C@@](C)(O)[C@H]3C[C@@H]12
inactive: [12] 104 % of control | [13] 113 % of control

CCCCCCCCCCCCCCC[N+]1(CC)CCCC1
inactive: dose: 0.78 mg/kg/injection, schedule: Q01DX009 (ip), vehicle: saline 108 % of control | dose: 1.56 mg/kg/injection, schedule: Q01DX009 (ip), vehicle: saline 114 % of control | dose: 3.12 mg/kg/injection, schedule: Q01DX009 (ip), vehicle: saline 114 % of control

CC1=CC(O)C(O)C2(C)C1CC1OC(=O)C(OC(=O)CC(C)C)C3C(C)C(O)C4(O)OCC13C42 (stereo not drawn) (tested in a mixture with another compound)
inactive: dose: 125.0 micrograms/kg/injection, schedule: Q01DX009 (ip), vehicle: other 104 % of control | dose: 250.0 micrograms/kg/injection, schedule: Q01DX009 (ip), vehicle: other 102 % of control | dose: 500.0 micrograms/kg/injection, schedule: Q01DX009 (ip), vehicle: other 103 % of control | dose: 1000.0 micrograms/kg/injection, schedule: Q01DX009 (ip), vehicle: other 108 % of control

O=[N+]([O-])c1ccc([S][Sn]([c]2ccccc2)([c]2ccccc2)[c]2ccccc2)cc1
inactive: dose: 50.0 mg/kg/injection, schedule: Q04DX003 (ip), vehicle: saline 101 % of control and 92 % of control | [12] 98 % of control and 104 % of control and 109 % of control | [13] 108 % of control and 109 % of control and 110 % of control | dose: 400.0 mg/kg/injection, schedule: Q04DX003 (ip), vehicle: saline 101 % of control and 102 % of control and 120 % of control

CCOC(=O)C(=O)C1Cc2c(C)cc3cnc(OCC)cc3c2C1=O (stereo not drawn)
inactive: dose: 12.5 mg/kg/injection, schedule: Q01DX009 (ip), vehicle: distilled water + Tween-80 92 % of control | dose: 25.0 mg/kg/injection, schedule: Q01DX009 (ip), vehicle: distilled water + Tween-80 89 % of control | dose: 100.0 mg/kg/injection, schedule: Q01DX009 (ip), vehicle: distilled water + Tween-80 92 % of control | dose: 200.0 mg/kg/injection, schedule: Q01DX009 (ip), vehicle: distilled water + Tween-80 92 % of control

COc1ccc(C2CCCCCC2)c(OC)c1OC
inactive: [1] 98 % of control and 108 % of control | [2] 113 % of control | [3] 103 % of control and 105 % of control

CC1C2Cc3ccc(O)cc3C1(C)CCN2C (stereo not drawn)
inactive: dose: 60.0 mg/kg/injection, schedule: Q01DX005 (ip), vehicle: saline with Tween-80 92 % of control | dose: 120.0 mg/kg/injection, schedule: Q01DX005 (ip), vehicle: saline with Tween-80 100 % of control

O[C@]12CC=CC[C@]1(O)CC(N1CCCCC1)C2
inactive: [14] 100 % of control | [15] 120 % of control and 93 % of control | [6] 100 % of control and 111 % of control | [7] 93 % of control

COc1ccc(C2OC3=C(Nc4cc(C)c(C)cc4N3)C2=O)cc1 (stereo not drawn)
inactive: [4] 89 % of control | [5] 89 % of control

Nc1cc(=O)[nH]c(N)n1
inactive: dose: 6.25 mg/kg/injection, schedule: Q01DX009 (ip), vehicle: saline with Tween-80 106 % of control | [14] 106 % of control | [15] 106 % of control | [6] 104 % of control and 108 % of control | [7] 107 % of control | [8] 104 % of control

O=c1[nH]c2c(c(O)c1-c1ccccc1)CCCN2
inactive: [9] 102 % of control | [10] 100 % of control | [11] 110 % of control
